Several values for one entry are separate records, joined by “and”; a condition that tells them apart may be missing. Identical values can stand only once.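 Results reflect a 48-hour exposure of cells in 96-well plates to compound at five concentrations. Abbreviation: GI50, concentration required for 50% inhibition of growth. The concentration for full growth arrest is given as TGI.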
Legend:
Assay in all cases: NCI tumour cell line growth inhibition, 48 h
[1] = system: OVCAR-8 ovarian
[2] = system: MOLT-4 leukemia
[3] = system: HCT-15 colon
[4] = system: K-562 leukemia
[5] = system: DU-145 prostate
[6] = system: HT29 colon
[7] = system: CCRF-CEM leukemia
[8] = system: MDA-MB-435
[9] = system: U251 CNS
[10] = system: MCF7 breast

| Compound | GI50 [1] | TGI [1] | GI50 [2] | TGI [2] [µM] | GI50 [3] | TGI [3] | GI50 [4] | TGI [4] [µM] | GI50 [5] | TGI [5] | GI50 [6] | TGI [6] | GI50 [7] | TGI [7] [µM] | GI50 [8] | TGI [8] | GI50 [9] | TGI [9] | GI50 [10] | TGI [10] |
| --- | --- | --- | --- | --- | --- | --- | --- | --- | --- | --- | --- | --- | --- | --- | --- | --- | --- | --- | --- | --- |
| CC(=Nc1ccccc1)C1=C(O)C(Cc2cccc(F)c2)NC1=O (centres undefined) | 0.122 µM | > 100 µM | 0.158 µM | > 100 | 0.0444 µM | > 100 µM | 0.0412 µM | > 100 | 0.086 µM | 10.2 µM | 0.0372 µM | 13.4 µM | 0.0581 µM | > 100 | 0.018 µM | 0.056 µM | 0.0702 µM | > 100 µM | 0.0354 µM | > 100 µM |
| Cc1cc2c(cc1C)[n+](=O)c(C(=O)/C=C/c1ccc3c(c1)OCO3)c(C)n2[O-] |  | > 100 µM |  | > 100 |  | > 100 µM |  | > 100 |  | > 100 µM |  | > 100 µM |  | > 100 |  | > 100 µM |  | 62.7 µM |  | > 100 µM |
| O=P(O)(O)OCC1OC(n2cnc3c(NCc4ccco4)ncnc32)C(O)C1O (centres undefined) | 0.861 µM | 6.9 µM | 0.339 µM | 1.9 | 0.701 µM | > 56.9 µM | 3.01 µM | > 57.5 | 0.57 µM | 2.4 µM | 2.98 µM | > 100 µM | 0.315 µM | 1.14 | 2.36 µM | > 25.7 µM | 4.33 µM | > 100 µM | 0.776 µM | > 21.6 µM |
| CCC#CC[C@H](O)C/C=C1/C(=O)C=C[C@@H]1C/C=C\CCCC(=O)OC | 1.24 µM | 4.76 µM | 0.78 µM | 7.17 | 1.17 µM | 5.09 µM | 1.13 µM | 50 | 1.75 µM | 7.26 µM | 0.991 µM | 2.46 µM | 0.413 µM | 5.66 | 1.5 µM | 5.92 µM | 0.695 µM | 1.99 µM | 0.297 µM | 7.01 µM |
| O=C1Nc2ccccc2/C1=C\c1cccc(/C=C2/C(=O)Nc3ccccc32)n1 | 0.3 µM | 1.13 µM | 0.509 µM |  | 0.219 µM | 0.618 µM | 0.291 µM | > 37.9 | 0.881 µM | 2.26 µM | 0.226 µM | 0.529 µM | 0.356 µM | > 100 | 0.355 µM | 1.81 µM | 0.16 µM | 0.346 µM | 0.226 µM | 0.851 µM |
| COc1ccc(-c2nsc3c2NC(=O)CC3c2ccc3c(c2)OCCO3)cc1 (centres undefined) | 1.02 µM | > 100 µM | 0.622 µM | > 100 | 0.504 µM | > 100 µM | 0.367 µM | > 100 | 1.07 µM | > 21.6 µM | 0.419 µM | > 55.5 µM | 0.406 µM | > 100 | 0.173 µM | 0.438 µM | 0.5 µM | > 100 µM | 0.371 µM | > 100 µM |
| COc1ccc(OC)c(NC(=O)c2cccc(NC3=C(Cl)C(=O)N(Cc4ccccc4)C3=O)c2)c1 | > 76.8 µM | > 100 µM | 7.66 µM | > 100 | > 100 µM | > 100 µM | 35.4 µM | > 100 | 27.8 µM | > 100 µM | > 100 µM | > 100 µM |  | > 100 | > 64.7 µM | > 100 µM | > 100 µM | > 100 µM | > 48.2 µM | > 100 µM |
| COc1ccc(C(C#N)=C2C=CC(=NO)C=C2)cc1 | 10.2 µM | 22.9 µM | 4.58 µM | > 100 | 11.7 µM | 26.1 µM | 7.26 µM | > 100 | 1.92 µM | 4.42 µM | 3.59 µM | 12.5 µM | 2.76 µM | > 100 | 2.23 µM | 5.8 µM | 6.46 µM | 19.4 µM | 2.88 µM | 13.8 µM |
| CCCCCCCN(CCCCCCC)C(=N)c1ccnc2ccccc12 | 1.63 µM | 3.48 µM | 1.7 µM | 4.4 | 1.59 µM | 3.04 µM | 1.27 µM | 3.48 | 1.6 µM | 3.04 µM | 1.24 µM | 2.87 µM | 2.14 µM | 5.27 | 1.58 µM | 3.24 µM | 1.66 µM | 3.11 µM | 1.71 µM | 3.32 µM |
| CN(C)C[C@H]1CCn2c(c(C3=C(c4cn(C)c5ccccc45)C(=O)NC3=O)c3ccccc32)C1 | 5.6 µM | 13.2 µM | 6.38 µM | 14 | 4.51 µM | 14.8 µM | 5.29 µM | 10.8 | 5.46 µM | 10.8 µM | 3.45 µM | 11.5 µM | 4.46 µM | 12.4 | 3.95 µM | 7.9 µM | 3.98 µM | 8.2 µM | 4.25 µM | 9.36 µM |
| CC(CN(C)C)S(=O)(=O)c1ccc(-c2cnc(N)c(C(=O)Nc3ccccc3)n2)cc1 (centres undefined) | 10.3 µM | > 89.8 µM | 3.15 µM | 14.2 | 2.91 µM | 13.4 µM | 3 µM | 22 | 4.56 µM | > 49.8 µM | 2.68 µM | 13.4 µM | 2.61 µM | 29.6 | 4.51 µM | 23.8 µM | 4.17 µM | 30 µM | 1.58 µM | 38.8 µM |
| CN(C)c1ccc(C(=N)c2ccc(N(C)C)cc2)cc1 | 3.79 µM and 3.55 µM | 19.1 µM and 28.1 µM | 3.66 µM | 26 | 2.56 µM and 2.6 µM | > 100 µM | 0.553 µM | 64.9 | 4.14 µM and 5.93 µM | > 100 µM | 1.32 µM and 2.11 µM | 11.6 µM and 16.4 µM | 5.33 µM | 64.5 | 0.375 µM and 0.382 µM | 3.19 µM and 9.02 µM | 3.54 µM and 3.11 µM | 18.9 µM and 17.7 µM | 1.34 µM and 1.29 µM | 32.3 µM and 38.3 µM |
| COC1CC(C)C(OC)c2cc(O)cc(c2O)NC(=O)/C(C)=C/C=C\C(C)C(OC(N)=O)/C(C)=C\C(C)C1OC (centres undefined) | 0.704 µM and 0.602 µM | 11.8 µM and 26.9 µM | 0.0437 µM and 0.0746 µM |  | 4.91 µM | 11.9 µM and 12.7 µM | 0.0333 µM and 0.143 µM and 0.0785 µM |  | 1.59 µM | 22.4 µM and 8.94 µM | 0.0526 µM and 0.116 µM | 12.2 µM and 10.3 µM | 0.0356 µM and 0.148 µM |  |  | 32.2 µM and 6.1 µM | 0.614 µM | 16.1 µM and 23.6 µM | 0.0482 µM | 10.5 µM |
| c1ccc2cc(Cn3cc[n+](Cc4ccc5ccccc5c4)c3)ccc2c1 | 1.64 µM | 12.3 µM | 1.24 µM | 8.38 | 14.9 µM | 29.5 µM | 1.02 µM | 14.5 | 2.83 µM | 14.7 µM | 0.555 µM | 5.74 µM | 1.61 µM | 11 | 0.543 µM | 2.29 µM | 1.5 µM | 11 µM | 1.87 µM | 10.5 µM |
| Nc1ncnc2c1c(-c1ccc(Oc3ccccc3)cc1)nn2C[C@H]1SSC[C@@H]1O | 0.523 µM | 15.9 µM | 0.0825 µM | 0.361 | 0.622 µM | 16.4 µM | 0.342 µM | 4.08 | 1.7 µM | 10.6 µM | 0.304 µM | 7.35 µM | 0.2 µM | 6.28 | 0.162 µM | 0.324 µM | 1.45 µM | 13.2 µM | 0.289 µM | 4.37 µM |
| CCn1c(-c2c(Cl)cc(O)cc2Cl)cc2c(Cl)cc(O)cc21 |  | 18.7 µM |  | > 100 |  | 12.8 µM |  | > 100 |  | > 100 µM |  | 6.82 µM |  | > 100 |  | 13 µM |  | 17 µM |  | 25.2 µM |
| Nc1ncn(C2OC(COP(=O)(O)O)C(O)C2O)c(=O)n1 (centres undefined) |  | > 68.9 µM |  | > 59.2 |  | > 100 µM |  | > 100 |  | > 100 µM |  | > 100 µM |  | > 52.4 |  | > 73.6 µM |  | > 100 µM |  | > 100 µM |
| Cc1ccc(-c2c(C#N)[n+](=O)c3cc(F)c(F)cc3n2[O-])cc1 | 20.8 µM | 40.3 µM | 0.851 µM | 2.71 | 1.2 µM | 3.75 µM | 1.64 µM | 4.29 | 14.5 µM | 30.9 µM | 24.7 µM | 61 µM | 1.6 µM | 4.41 | 2.27 µM | 5.95 µM | 1.43 µM | 2.94 µM | 5.04 µM | 38.1 µM |
| O=C1NC(O)c2ccccc2O1 (centres undefined) |  | > 100 µM |  | > 100 |  | > 100 µM |  | > 100 |  | > 100 µM |  | > 100 µM |  | > 100 |  | > 100 µM |  | > 100 µM |  | > 100 µM |
| C=C1C(=O)O[C@H]2[C@H]1CC/C(Cn1cc(Cc3c[nH]c4ccccc34)nn1)=C\CC[C@@]1(C)O[C@@H]21 | 3.44 µM | 10.7 µM | 2.29 µM | 6.04 | 1.59 µM | 3.35 µM | 1.81 µM | 6.14 | 1.54 µM | 2.88 µM | 1.95 µM | 3.72 µM | 0.718 µM | 5.92 | 1.73 µM | 3.46 µM | 1.89 µM | 3.63 µM | 1.5 µM | 3.34 µM |
